# Structures can show the parent of a compound that is named as a salt. Where two headings read alike, the source gives them in different places.
# How the values were obtained:
# [1] = following intraperitoneal administration; cited from earlier work
# [2] = tested on: epidermal Langerhans cells (ELC); assay: Density and morphology of epidermal Langerhans cells, ATPase and Ia staining; assay type: in vivo, BALB/c mice
# Excerpt: Mice were sacrificed by cervical dislocation and their ears were amputated at the base. The skin was separated from underlying cartilage by dissection and pressed dermal side up onto an adhesive surface of a double stick tape (Dermotome Tape, 3M, St. Paul, Minn.), that had previously been fixed onto a glass slide. […] (25,26), then the epidermis was separated as an intact sheet from the underlying dermis.
# Epidermal sheets were stained for ATPase activity according to MacKenzie and Squier (27). Briefly, epidermal sheets were fixed in Tris-maleic acid buffered 4% paraformaldehyde, pH 7.3, for 20 minutes at 4° C. After three washes with a 0.9% NaCl solution, the epidermal sheets were incubated at pH 7.3 in a solution containing 10 mg ATP, 5 ml of 10% MgSO4, 3 ml of 2% […], and 42 ml Tris-maleic acid buffer for one hour at 37° C., washed with 0.9% NaCl solution, and reacted with 0.1% ammonium sulfide for five minutes at room temperature. The stained specimens were mounted in a 9:1 mixture of PBS/glycerol.
# Ia-positive cells were stained as follows: EDTA separated epidermal specimens, washed in PBS for 30 minutes, were fixed in cold acetone (-20° C.) for 20 minutes. After washing with PBS, the epidermal sheets were incubated with a 1:100 dilution of anti-mouse I-A^d monoclonal antibody (Becton Dickinson, Mountain View, Calif.) at 4° C. overnight (28). Subsequently, specimens were washed in PBS for two hours and exposed to fluorescein conjugated F(ab')2 fragment goat anti-mouse IgG (Organon Teknika Corp., West Chester, Pa.) at a 1:50 dilution for two hours at 37° C. The epidermal sheets were mounted in Perma Fluor (Lipshaw, Detroit, Mich.).
# Slides were coded and read in a "blinded" manner. The density of ELC within each epidermal sheet was determined by using a dual epifluorescent and light microscope (Olympus BH-2, Japan) with a calibrated net micrometer grid. ATPase-positive ELC and Ia-positive ELC present in a 0.25 mm^2 area were counted in two random fields per sheet (total: 16 fields per experimental group). ELC density was recorded as the number of cells per mm^2 (mean ±S.E.). Statistical significance of the differences between treatment and control groups was calculated using a two-talled Wilcoxon Rank Sum Test. Differences between groups were considered significant at p=0.05.
# [3] = tested on: delayed hypersensitivity to ovalbumin; assay: Antigenic specificity of the suppressor cells (ovalbumin response of recipients); assay type: in vivo, mice of the strain AB (H-2^k)
# Procedure: (§1) Inbred mice of the strain AB (H-2^k) reared in the breeding colony of the Humboldt University Berlin were used. The mice were fed with water and standard pellets ad libitum. During all procedures (sensitization, challenge, measurement) the animals were anesthetized by an intraperitoneal injection of hexobarbital sodium salt. The number of animals per experimental group (n) is presented.
# (§2) 10 g LaCl3 ×7H2 O (Laborchemie Apolda, G.D.R.) was dissolved in 10 ml water and incorporated into unguentum alcoholum lanae aquosum. The previously shaved sensitization site on the abdominal skin of the mice was treated at the days numbered -1, 0, and +1 with this ointment. At the days 0 and +1, when contact sensitization with DNFB was performed, the ointment was applied on hour after sensitization, so that the penetration of the DNFB was not influenced by the ointment.
# The spleens from mice treated with lanthanum and control animals were removed and homogenized by gently pressing the tissue through a steel mesh. […]
# Other groups of mice were sensitized by injection 50 microliters of ovalbumin (Serva, Heidelberg, F.R.G.) emulsified in 20 microliters of complete Freund's adjuvant (Difco laboratories, Detroit, U.S.A.) subcutaneously into the base of the tail. […] One day later foodpad swelling was measured. […]
# [4] = tested on: atopic dermatitis affecting the hands; assay: Treatment of atopic dermatitis affecting the hands with lanthanum chloride ointment; assay type: in vivo, human (patients); details: 5% ointment twice daily, 1-3 months; five patients
# Procedure: Five patients with atopic dermatitis affecting the hands were treated with topical lanthanides. In this protocol individuals were dispensed a 5% lanthanum chloride ointment and were instructed to use a thin film on the hands twice daily immediately before work and immediately upon returning home from work. These individuals did so for a period of 1-3 months.
# [5] = tested on: contact allergic dermatitis; assay: Patch tests in seven patients with known contact allergic dermatitis, overall; assay type: in vivo, human (patients)
# Procedure: Seven patients with known contact allergic dermatitis were recruited. One had hypersensitivity to nickel, four of these individuals had allergies against formaldehyde, and two had known allergies against chromium sulfate. Three patch test were applied in each individual. Patient number 1 was exposed to nickel sulfate (5% weight per volume) in hydrophilic ointment base USP. "Results" refers to the amount of erythema in the patch test sites at 48 hours, judged on a scale of 0-3+, where 3+ represents maximum erythema and inflammation.
# [6] = assay type: in vivo, human (patients with atopic dermatitis)
# Procedure: To date, eight patterns with endogenous eczema (atopic dermatitis) have been treated with topical lanthanides. In three individuals, atopic dermatitis affected the majority of the body surface. These three patients were treated with a single total body application of lanthanum chloride (5% in hydrophilic ointment base). Blood levels of lanthanum were measured by atomic absorption spectroscopy, over a period of 1/2 to 24 hours after the single application.
# [7] = tested on: formaldehyde allergy; assay: Prevention of inflammatory reaction by topical La^3+, patch test with formaldehyde; assay type: in vivo, human (patient); details: 2% in hydrophilic ointment base, read at 72 hours
# Procedure: In this example, a patient with known allergy against for formaldehyde was challenged with formaldehyde in the presence of lanthanum chloride. Lanthanum chloride was used at a 2% concentration (2 g/100 ml) in hydrophilic ointment base, USP, and the lanthanum was incorporated in the ointment at the time of exposure. The results of the patch test were read at 72 hours, and a photograph was taken. […] There was a very slight decrease of inflammation due to the presence of the ointment base itself. This slight decrease as a result of the use the emollient only is a well known phenomenon. […] The effect of the lanthanum is clearly much greater than that of the ointment base alone.
# [8] = tested on: suppressor cells (CD4 or CD8 T cell determinants); assay: Phenotype of the suppressor cells, spleen cells treated in vitro with mab and complement before transfer; assay type: in vivo, mice of the strain AB (H-2^k)
# Procedure: The spleens from mice treated with lanthanum and control animals were removed and homogenized by gently pressing the tissue through a steel mesh. […] Thereafter the cells were washed 2 times and incubated for 20 minutes at 4° C. with a rat anti-mouse Ig mab (ATCC, Rockville, USA). The cells were washed 2 times and incubated for 30 minutes at 37° C. with normal rabbit serum, diluted 1:5 as a source of complement. The serum used was not toxic to the cells. Thereafter the cells were washed 2 times and 10^8 viable cells were injected intravenously into native syngeneic mice.
# The non-parametric Mann-Whitney test was used.
# To investigate the phenotype of this suppressor cell, spleen cells were harvested from mice which were previously sensitized with DNFB on LaCl3 pretreated skin. […]
# [9] = tested on: DNFB contact sensitivity; assay: Transfer of hyporesponsiveness to DNFB by spleen cells of mice sensitized on LaCl3 treated skin; assay type: in vivo, mice of the strain AB (H-2^k)
# Excerpt: as §1
# The mice were anesthesized in an area of 2.0×2.0 cm on their abdomen, abdominal skin was shaved with a blade, and a 20 microliters of a 0.5% solution of 2,4-dinitro-1-fluorobenzene (DNFB) (Serva, Heidelberg, F.R.G.) in acetone were applied to this site. This procedure was repeated one day later.
# The challenge reaction was induced 5 days after the first sensitization by an application of 0.2% DNFB in acetone on the dorsal surfaces of both ears. The ear thickness was measured before and 24 hours after challenge using an engineers micrometer (Peacock, Japan).
# as §2
# The spleens from mice treated with lanthanum and control animals were removed and homogenized by gently pressing the tissue through a steel mesh. The cell were suspended in RPMI 1640 medium (SIFIN, Berlin, G.D.R.) and were washed three times by centrifugation at 300 g for 10 minutes and resuspended. The treatment with monoclonal antibodies (mab) was performed by incubating the cells for 20 minutes with the L3T4 mab (clone GK 1.5, ATCC, Rockville, USA) or the anti-Lyt 2 mab (clone 53-6, ATCC, Rockville, USA) in a final dilution of 1:50. Thereafter the cells were washed 2 times and incubated for 20 minutes at 4° C. with a rat anti-mouse Ig mab (ATCC, Rockville, USA). […]
# [10] = tested on: contact sensitization against DNCB; assay: Effect of topically administered La^3+ on sensitization against DNCB (ear swelling); assay type: in vivo, BALB/c mice
# Procedure: Mice were treated with 50 microliters of 10% La^3+ chloride mixture (500 mg La^3+ chloride dissolved in 5 ml of 95% ethanol:glycerin [4:1 ratio]) applied for five consecutive days to the shaved back surface. Control animals were treated with the ethanol:glycerin vehicle only. On days 6 and 7, 25 microliters of 1.0% DNCB solution was applied to the shaved dorsal back surface. In mice pretreated with topical La^3+, DNCB was applied only to the shaved dorsal skin that had previously been treated with La^3+.
# [11] = tested on: contact sensitization against DNCB; assay: Inhibition of sensitization by diltiazem against DNCB (ear swelling); assay type: in vivo, BALB/c mice
# Procedure: Diltiazem HCl (1,5-Benzothiazepin-4(5H)one, 3-acetoy lox-5-(2-(dimethylamine)ethyl)-2, 3-dihydro-2(4-methoxyphenyl)-, monohydrochloride, (+)-cis) was injected intraperitoneally in a dose of 30 mg/kg (LD50 =60 mg per kg) two times a day for three days. Two hours after the first injection, mice were sensitized by applying DNCB to the shaved dorsal back skin. Contact sensitization against DNCB was determined five days later.
# [12] = stated with intraperitoneal administration in mice; no test described; cited from earlier work
# [13] = 0.25 mg per animal intraperitoneally for five days, vs control animals
compound,measurement,setting,value
lanthanum citrate [La^3+ citrate],accumulation in the skin,[1],accumulated in the skin
same,decrease in density of ATPase positive cells,[2]; [13],13%
same,decrease in number of Ia-positive cells,[2]; [13],14%
same,"Density of Langerhans cells in ear skin, ATPase","[2]; ATPase staining, ± S.E., 0.9% NaCl 807 ± 55",702 ± 49 cells/mm^2
same,"Density of Langerhans cells in ear skin, Ia","[2]; Ia staining, ± S.E., 0.9% NaCl 830 ± 46",715 ± 59 cells/mm^2
same,"ELC ""rounded up"" and without dendrites","[2]; in focal areas, ATPase and Ia staining",approximately 20%
same,"staining of ""round"" cells by the ATPase technique",[2]; subjectively measured by darkening of the cell body,more darkly stained
"[Cl][La]([Cl])[Cl] [lanthanum chloride, Lanthanum chloride]",footpad swelling response of the recipients to ovalbumin,[3]; transferred cells from mice sensitized with DNFB on LaCl3-treated skin,not affected
same,Ear thickness (footpad swelling per footnote),"[3]; ± SD, DNFB sensitization on LaCl3 treated skin, recipients immunized with ovalbumin, n 8, NS, no cell transfer .68 ± .12",.68 ± .09 10^-2 mm
same,"fissuring, oozing, and puritis",[4],decrease
same,hand dermatitis,[4],significant improvement
same,suppression of inflammation in all individuals,[5]; 5% lanthanum chloride at the time of exposure to known allergen,significant suppression of inflammation
same,suppression of inflammation upon challenge,"[5]; seven patients, known sensitizing agents",dose dependent effect in suppression of inflammation
same,penetration of the stratum corneum of the epidermis,[6],does penetrate the stratum corneum of the epidermis
same,time of peak blood level,"[6]; human, in vivo, topical or ocular",approximately 4 hours
same,Blood Concentration of La^+ 3,"[6]; human, in vivo, topical or ocular, 0.5 h",4 ± 2.8 ng/mL
same,Blood Concentration of La^+ 3,"[6]; human, in vivo, topical or ocular, 1 h",12.3 ± 2.3 ng/mL
same,Blood Concentration of La^+ 3,"[6]; human, in vivo, topical or ocular, 2 h",12.16 ± 3 ng/mL
same,Blood Concentration of La^+ 3,"[6]; human, in vivo, topical or ocular, 4 h",30.9 ± 2.2 ng/mL
same,Blood Concentration of La^+ 3,"[6]; human, in vivo, topical or ocular, 12 h",14 ± 1.6 ng/mL
same,Blood Concentration of La^+ 3,"[6]; human, in vivo, topical or ocular, 24 h",11 ± 3.6 ng/mL
same,blood level relative to levels known to produce toxicity in animals and humans,[6]; in vivo,well below those levels known to produce toxicity in animals and humans
same,inflammation in patch test,[7],almost totally abolished
same,suppressor T cell population induced,[8]; DNFB-sensitized mice,a splenic CD4-CD8+ suppressor T cell population is induced
same,% Suppression,"[8]; spleen cells of LaCl3-treated, DNFB-sensitized donors, in vitro treatment as labelled (LaCl3 line = no treatment of cells), n 5",100%
same,Ear thickness,"[8]; ± SD, spleen cells of LaCl3-treated, DNFB-sensitized donors, in vitro treatment as labelled (LaCl3 line = no treatment of cells), no cell transfer 50 ± 4.2, n 5",28 ± 2.1 10^-2 mm
same,% Suppression,"[9]; recipients of cells from donors DNFB-sensitized on LaCl3 treated skin, n 7",88%
same,transfer of hyporesponsiveness to DNFB by spleen cells,[9]; topical LaCl3 treatment of donors,transferred the hyporesponsiveness to DNFB to native syngeneic recipients
same,Ear thickness,"[9]; ± SD, recipients of cells from donors DNFB-sensitized on LaCl3 treated skin, n 7, p 0.01, no cell transfer 46 ± 4.8",29 ± 2.4 10^-2 mm
same,ear swelling,"[10]; 24 h post-challenge, control 0.12±0.02 mm, p=0.028",0.05±0.02 mm
same,decrease in ear thickness 24 h post-challenge,"[10]; FIG. 2, topical, vs. non-La-treated animals, p<0.01, challenge 25 μl of 0.25% DNCB",58%
same,difference in ear swelling between pretreated and control animals,[10]; statement follows negative control (challenged without prior sensitization) 0.03±0.01 mm,not statistically significant
same,reduction in the contact hypersensitivity response,"[10]; topical, 50 microliters of 10% La^3+ chloride, five days",58%
"COc1ccc([C@@H]2Sc3ccccc3N(CCN(C)C)C(=O)[C@@H]2OC(C)=O)cc1 [diltiazem, 1,5-Benzothiazepin-4(5H)one, 3-acetoy lox-5-(2-(dimethylamine)ethyl)-2,3-dihydro-2(4-methoxyphenyl)-, monohydrochloride, (+)-cis]",reduction in the contact hypersensitivity response,"[11]; 30 mg/kg intraperitoneally two times a day for three days, p=0.001",67%
same,decrease in ear thickness 24 h post-challenge,"[11]; FIG. 3, vs. solvent only, p<0.001",67%
same,difference in ear swelling between pretreated and control animals,"[11]; statement follows negative controls (challenged, not sensitized) 0.03±0.01 mm",not statistically significant
same,ear swelling,[11]; vehicle control 0.15±0.02 mm,0.05±0.01 mm
same,LD50,[12],60 mg per kg

# Source: patent US5202130A, “Suppression of eczematous dermatitis by calcium transport inhibition” (The Johns Hopkins University, priority 1989, dated 1993)
